According to PMC7998731, “Pharmacokinetic Characterization of Supinoxin and Its Physiologically Based Pharmacokinetic Modeling in Rats” (Pharmaceutics, 2021):
“And” between values parts separate entries of the source, which are not always exact repeats. Equal entries are not always repeated.

Test: Determination of urinary and fecal excretion in rats
Format: in vivo
Settings: 5 mg/kg; for Fecal excretion, Amount / Fecal excretion, Fraction Excreted (unchanged) / Urinary excretion, Amount / Urinary excretion, Fraction Excreted (unchanged): 0–48 h
Experimental: Supinoxin was administered to male SD rats (n = 3–4) at a dose of 5 mg/kg either intravenously (through the tail vein) or by oral gavage, following which rats were kept in metabolic cages and urine and feces samples were collected over the following time intervals: 0–2, 2–4, 4–6, 6–10, 10–24, 24–36, and 36–48 h for urine; 0–10, 10–24, 24–36, and 36–48 h for feces.
The metabolic cages were rinsed with distilled water, and residues were added to the urine samples at 48 h. To extract the supinoxin present in the feces, samples were homogenized with a blender mixer and shaken vigorously for 4 h with 50% methanol.
The amount of drug excreted in urine or feces (Ae) and the dose fractions excreted unchanged in urine or feces (fe) were calculated as:Ae = Cobs, urine or feces × Vurine or feces(2) fe = Ae/Dose(3)
The urinary and fecal clearances of supinoxin were calculated as:CLurine or feces = Ae, urine or feces/AUC(4)

## COc1cc(OC)cc(N2CCN(C(=O)Nc3nc4cc(F)ccc4nc3OC)CC2)c1 [supinoxin, 1-(3,5-Dimethoxyphenyl)-4-[(6-Fluoro-2-Methoxyquinoxalin-3-yl) Aminocarbonyl] Piperazine]
IV
  Fecal excretion, Amount: 142 ± 21.6 µg
  Fecal excretion, Fraction Excreted (unchanged): 16.5% and 16.5 ± 2.82%
  Urinary excretion, Amount: 0.27 ± 0.06 µg
  Urinary excretion, Fraction Excreted (unchanged): 0.03% and 0.03 ± 0.01%
PO
  Fecal excretion, Amount: 412 ± 209 µg
  Fecal excretion, Fraction Excreted (unchanged): 46.8% and 46.8 ± 24.5%
  Urinary excretion, Amount: 0.06 ± 0.04 µg
  Urinary excretion, Fraction Excreted (unchanged): 0.01% and 0.01 ± 0.01%
male, Sprague-Dawley (SD), rat, urine, both intravenous and oral administration, read-out: total urinary recovery of unchanged supinoxin
  dose excreted: < 0.1%
